According to patent US6677431B2, “Design, preparation, and properties of antibacterial β-peptides” (The Trustees of the University of Pennsylvania, priority 1999, dated 2004):
Read-outs that look alike come from different tables or passages of the source. No end group written: not given here.

Legend:
[1] = Hemolysis assay, 50% lysis of RBC's; type: cell-based, human; settings: 0.25% suspension of human erythrocytes (RBCs)
Procedure: (§1) The biological activities of these peptides were measured using human erythrocytes and E. coli as models for mammalian and bacterial cells, respectively. Hemolysis was monitored in 10 mM Tris, 150 mM NaCl, pH 7.0, while the bacterial assay was conducted in minimal media M9 (Table 1); both of these solutions are sufficiently transparent to allow CD and ultracentrifugation measurements (supplementary material). Under the assay conditions, the peptides gave CD spectra similar to those in Tris buffer, with the exception of H-(β^3-HLeu-β^3-HLys-β^3-HLeu)n-OH, n=5 and 6.
(§2) ∇in M9 medium (data from Hamuro et al., ref. 5) # In M9 medium.+Hemolysis experiments were performed by incubating a 0.25% suspension of human RBc's in 10 mM Tris buffer containing […] at pH 7.0 with varying amounts of peptide. The hemolytic dose required to lyse 50% of the RBC's is reported as the HD50.
(§3) Hemolysis experiments were carried out by incubating 0.25% suspension of human erythrocytes (RBC's) with peptides of different concentrations in 150 mM sodium choloride, 10 mM Tris buffer, pH 7.0. The sample was prepared by combining 400 μL of the RBC suspension and […] of the peptide solution. After incubated the sample at 37— C. for 1 hour, the sample was centrifuged at 14,000 rpm for 5 min, and the OD414 of the supernatant was measured. Mellitin (50 μM) was used to get 100% hemolysis. The hemolytic IC50 was obtained by plotting hemolysis percentage vis. peptide concentration, and the concentration required for 50% hemolysis was determined from the smooth curve-fitted graph.
(§4) The activity and selectivity of peptide 1 and peptide 2 were examined by antibacterial assay and hemolysis experiments. E. Coli and human erythrotytes (RBC) were used as models for bacterial cell and mammalian cell, respectively. The peptide concentration required for 50% bacterial growth suppression (IC50), and peptide concentration required for 50% RBC lysis (HD50) are listed in Table 3. […] The antibacterial activities of peptide 1 and peptide 2 are about the same except peptide 2 has slightly lower IC50. Similar trend has been observed in the previous study, that longer peptide tends to have higher activity. However, the difference in IC50 is much smaller for this series of peptide than the previously studied ones. Antibacterial peptide with good selectivity is usually represented by its low hemolysis ability. […] The HD50 is 670 μM for peptide 1 and 240 μM for peptide 2, which gives a selectivity of 111 for peptide 1 and 60 for peptide 2.

[2] = tested on: K91 E. coli; type: cell-based; settings: K91, 9 h, pH 7.4
Procedure: as §1
Antibacterial assay was performed by incubation of K 91 E. coli and peptide of different concentrations in minimal media, at pH 7.4. The peptide solution (50 μL) and K 91 E. coli culture (20 μL, grown in minimal media for 24 hr-36 hr) were mixed with 1 mL minimal media. […] The peptide dose required for 50% suppress of bacterial growth was obtained from the smooth fitted OD600 vs. log[peptide] curve.
as §4

[3] = tested on: human erythrocytes (RBC's); test: Hemolysis assay, 50% lysis of RBC's; type: cell-based; settings: pH 7
Procedure: as §1, §2, §3, §4

[4] = In LB medium (data from Oh et al.); cited from earlier work
[5] = tested on: micF-lux fusion; test: Stress-induced response assay, induction of micF-lux fusion; type: cell-based; settings: Table 4; regulatory gene Rob
Procedure: (§5) Stress-induced response and growth inhibition assays were carried out on samples of four of the β-peptide and compared to known polycationic peptides.
(§6) Polymyxin B was tested both rich, LB, medium and defined, M9, medium. The other natural peptides were tested in LB medium.
(§7) The β-peptides were tested in M9 medium. * In LB medium (data from Oh et al. Biochem. Biophys. Acta. 2000,1463: 43-54)
(§8) However, similar to the magainins, no induction of the micF-lux fusion was observed. Also, the minimum inhibitory concentrations (MIC's) were determined to be higher than those reported in the published manuscript.
(§9) Samples of these β-peptides 1 and 2 were evaluated in the stress-induced response assays.
(§10) The biolumenescence data result from test carried out according to U.S. Pat. No. 5,683,868, Highly Sensitive Method For Detecting Environmental Insults, issued Nov. 4, 1997 to LaRossa et al., the entire contents of the disclosure of are hereby incorporated by reference, The tests described in this patent permit antibacterial properties of peptides or any other materials to be assessed. […] Along these lines, FIG. 5 illustrates a relationship between relative light units and minutes of exposure of bacteria to the various materials in the legend. P×B represents polymyxin, a known antibacterial material. In the graph, a decrease in RULs corresponds to a decrease in bacteria. […]

[6] = tested on: osmY-lux fusion; test: Stress-induced response assay, induction of osmY-lux fusion; type: cell-based; settings: Table 4; stress sensed osmotic shock
Procedure: as §5, §6, §7, §8, §9, §10

| Compound | HC50 at 1 h ([1]; human, pH 7) [µM] | IC50 [2] [µM] | MIC* [4] [µM] | further results |
| --- | --- | --- | --- | --- |
| CC(C)C[C@@H](CC(=O)O)NC(=O)C[C@H](CCCCN)NC(=O)C[C@@H](NC(=O)C[C@H](CC(C)C)NC(=O)C[C@H](CCCCN)NC(=O)C[C@@H](NC(=O)OCC1c2ccccc2-c2ccccc21)C(C)C)C(C)C [Fmoc-(β^3-HVal-β^3-HLys-β^3-HLeu)2-OH, Fmoc-(b^3-HVal-b^3-HLys-b^3-HLeu)2-OH] | > 100 | > 100 | – | – |
| CC(C)C[C@@H](CC(=O)O)NC(=O)C[C@H](CCCCN)NC(=O)C[C@@H](NC(=O)C[C@H](CC(C)C)NC(=O)C[C@H](CCCCN)NC(=O)C[C@@H](NC(=O)C[C@H](CC(C)C)NC(=O)C[C@H](CCCCN)NC(=O)C[C@@H](NC(=O)OCC1c2ccccc2-c2ccccc21)C(C)C)C(C)C)C(C)C [Fmoc-(β^3-HVal-β^3-HLys-β^3-HLeu)3-OH, Fmoc-(b^3-HVal-b^3-HLys-b^3-HLeu)3-OH] | 6.3 | 15 | – | HD50+ [3]: 6.3 µM |
| CC(C)C[C@@H](CC(=O)O)NC(=O)C[C@H](CCCCN)NC(=O)C[C@@H](NC(=O)C[C@H](CC(C)C)NC(=O)C[C@H](CCCCN)NC(=O)C[C@@H](NC(=O)C[C@H](CC(C)C)NC(=O)C[C@H](CCCCN)NC(=O)C[C@@H](NC(=O)C[C@H](CC(C)C)NC(=O)C[C@H](CCCCN)NC(=O)C[C@@H](NC(=O)OCC1c2ccccc2-c2ccccc21)C(C)C)C(C)C)C(C)C)C(C)C [Fmoc-(β^3-HVal-β^3-HLys-β^3-HLeu)4-OH, Fmoc-(b^3-HVal-b^3-HLys-b^3-HLeu)4-OH] | 0.31 | 1.5 | – | – |
| CC(C)C[C@H](N)CC(=O)N[C@@H](CCCCN)CC(=O)N[C@H](CC(=O)N[C@H](CC(=O)N[C@@H](CCCCN)CC(=O)N[C@H](CC(=O)O)CC(C)C)CC(C)C)CC(C)C [H-(β^3-HLeu-β^3-HLys-β^3-HLeu)2-OH, H-(b^3-HLeu-b^3-HLys-b^3-HLeu)2-OH] | > 100 | > 100 | – | – |
| CC(C)C[C@H](N)CC(=O)N[C@@H](CCCCN)CC(=O)N[C@H](CC(=O)N[C@H](CC(=O)N[C@@H](CCCCN)CC(=O)N[C@H](CC(=O)N[C@H](CC(=O)N[C@@H](CCCCN)CC(=O)N[C@H](CC(=O)O)CC(C)C)CC(C)C)CC(C)C)CC(C)C)CC(C)C [H-(β^3-HLeu-β^3-HLys-β^3-HLeu)3-OH, H-(b^3-HLeu-b^3-HLys-b^3-HLeu)3-OH] | > 100 | 35 | – | – |
| CC(C)C[C@H](N)CC(=O)N[C@@H](CCCCN)CC(=O)N[C@H](CC(=O)N[C@H](CC(=O)N[C@@H](CCCCN)CC(=O)N[C@H](CC(=O)N[C@H](CC(=O)N[C@@H](CCCCN)CC(=O)N[C@H](CC(=O)N[C@H](CC(=O)N[C@@H](CCCCN)CC(=O)N[C@H](CC(=O)O)CC(C)C)CC(C)C)CC(C)C)CC(C)C)CC(C)C)CC(C)C)CC(C)C [H-(β^3-HLeu-β^3-HLys-β^3-HLeu)4-OH, H-(b^3-HLeu-b^3-HLys-b^3-HLeu)4-OH] | 2.6 | 1.7 | – | HD50+ [3]: 2.6 µM |
| CC(C)C[C@H](N)CC(=O)N[C@@H](CCCCN)CC(=O)N[C@H](CC(=O)N[C@H](CC(=O)N[C@@H](CCCCN)CC(=O)N[C@H](CC(=O)N[C@H](CC(=O)N[C@@H](CCCCN)CC(=O)N[C@H](CC(=O)N[C@H](CC(=O)N[C@@H](CCCCN)CC(=O)N[C@H](CC(=O)N[C@H](CC(=O)N[C@@H](CCCCN)CC(=O)N[C@H](CC(=O)O)CC(C)C)CC(C)C)CC(C)C)CC(C)C)CC(C)C)CC(C)C)CC(C)C)CC(C)C)CC(C)C [H-(β^3-HLeu-β^3-HLys-β^3-HLeu)5-OH, H-(b^3-HLeu-b^3-HLys-b^3-HLeu)5-OH] | 0.23 | – | – | HD50+ [3]: 0.23 µM |
| CC(C)C[C@H](N)CC(=O)N[C@@H](CCCCN)CC(=O)N[C@H](CC(=O)N[C@H](CC(=O)N[C@@H](CCCCN)CC(=O)N[C@H](CC(=O)N[C@H](CC(=O)N[C@@H](CCCCN)CC(=O)N[C@H](CC(=O)N[C@H](CC(=O)N[C@@H](CCCCN)CC(=O)N[C@H](CC(=O)N[C@H](CC(=O)N[C@@H](CCCCN)CC(=O)N[C@H](CC(=O)N[C@H](CC(=O)N[C@@H](CCCCN)CC(=O)N[C@H](CC(=O)O)CC(C)C)CC(C)C)CC(C)C)CC(C)C)CC(C)C)CC(C)C)CC(C)C)CC(C)C)CC(C)C)CC(C)C)CC(C)C [H-(β^3-HLeu-β^3-HLys-β^3-HLeu)6-OH, H-(b^3-HLeu-b^3-HLys-b^3-HLeu)6-OH] | 0.081 | – | – | HD50+ [3]: 0.081 |
| CC(C)C[C@@H](CC(=O)O)NC(=O)C[C@H](CCCCN)NC(=O)C[C@@H](NC(=O)C[C@H](CC(C)C)NC(=O)C[C@H](CCCCN)NC(=O)C[C@@H](N)C(C)C)C(C)C [H-(β^3-HVal-β^3-HLys-β^3-HLeu)2-OH, H-(b^3-HVal-b^3-HLys-b^3-HLeu)2-OH] | > 100 | > 100 | – | – |
| CC(C)C[C@@H](CC(=O)O)NC(=O)C[C@H](CCCCN)NC(=O)C[C@@H](NC(=O)C[C@H](CC(C)C)NC(=O)C[C@H](CCCCN)NC(=O)C[C@@H](NC(=O)C[C@H](CC(C)C)NC(=O)C[C@H](CCCCN)NC(=O)C[C@@H](N)C(C)C)C(C)C)C(C)C [H-(β^3-HVal-β^3-HLys-β^3-HLeu)3-OH, H-(b^3-HVal-b^3-HLys-b^3-HLeu)3-OH] | – | 41 | – | HC50 at 1 h ([1]; 0.25% human erythrocytes, 10 mM Tris, 150 mM NaCl, pH 7.0, 1 h at 37° C., read-out: Hemolysis HD50): 86 µM |
| CC(C)C[C@@H](CC(=O)O)NC(=O)C[C@H](CCCCN)NC(=O)C[C@@H](NC(=O)C[C@H](CC(C)C)NC(=O)C[C@H](CCCCN)NC(=O)C[C@@H](NC(=O)C[C@H](CC(C)C)NC(=O)C[C@H](CCCCN)NC(=O)C[C@@H](NC(=O)C[C@H](CC(C)C)NC(=O)C[C@H](CCCCN)NC(=O)C[C@@H](N)C(C)C)C(C)C)C(C)C)C(C)C [H-(β^3-HVal-β^3-HLys-β^3-HLeu)4-OH, H-(b^3-HVal-b^3-HLys-b^3-HLeu)4-OH] | 4.2 | 2.1 | – | – |
| Cecropin A (KWKLFKKIEKVGQNIRDGIIKAGPAVAVVGQATQIAK; ends and bridges not checked; UniProt P01507 27-63, looked up) [known polycationic natural peptide] | – | – | 0.1 | – |
| Cecropin B (KWKVFKKIEKMGRNIRNGIVKAGPAIAVLGEAKAL; ends and bridges not checked; UniProt P01508 27-61, looked up) [known polycationic natural peptide] | – | – | 0.1 | – |
| Magainin 1 (GIGKFLHSAGKFGKAFVGEIMKS; Magainin-1; UniProt P11006 37-59, looked up) [known polycationic natural peptide (frog skin)] | – | – | 12 | – |
| Magainin 2 | – | – | 5 | – |
| Polymyxin B | – | – | 0.2 | – |
| Polymyxin E | – | – | 0.15 | – |
| Polymyxin [reference compound] | – | – | – | micF gene fusion response [5]: yes; osmY gene fusion response [6]: yes |
